For orientation: IC50 means the concentration needed to halve the response being measured.

The subject of assay [1] is Hartley male guinea pig, urethane anesthesia. The assay is described as follows: Pressure/flow study using guinea pig (Example 3). Type of assay: in vivo. The conditions noted are these: for Amount of urination, proportion for value before administration (%) / At maximum urine flow rate Inner pressure of bladder, proportion for value before administration (%) / Maximum urine flow rate, proportion for value before administration (%): i.v.; for Bladder compliance, proportion for value before administration (%) / Bladder volume, proportion for value before administration (%): iv; for change of the parameters at urination and at collection of urine (text): intravenous administration. On the procedure:
A Hartley male guinea pig of 5 weeks old (Japan SLC) was used. After urethane anesthesia, the medial incision of the lower abdomen was carried out, and the bladder was exposed. Two injection needles (20G) with which a polyethylene tube (PE-100) was linked were inserted in the bladder, and one needle was used for injection of saline and another needle was used for measurement of the inner pressure of the bladder. The injection of saline was continuously carried out at a rate of 18 mL/h using a syringe pump (SP-100S, JMS, and Hiroshima), the injection was stopped after intermittent urination was confirmed 3 times at minimum, and the saline in the bladder was removed by suction. Injection was started again, and the injection was stopped when the raise of the inner pressure of the bladder just before urination was confirmed. The amount of urine excreted was measured by an electronic weighing machine (HX-400, A&D, and Tokyo) and the inner pressure of the bladder was measured using a pressure transducer (AP641G, NIPPON KODEN Corporation). The analogue data of the weight of urine and the inner pressure of the bladder were inputted in a multi-channel data analyzer (MP-100A-CE, Biopac systems), and analyzed by a proprietary software (Acqknowledge, Biopac systems). The sampling interval of data was 0.1 second and a low pass filter was applied to the data of discharge amount and urine flow rate at 0.5 Hz in order to remove noise. A delay time of 0.1 second in weighing the urine was rectified, and the urine flow rate was determined by differentiating the value of discharge amount. After a value before twice administration of the drug was measured, the drugs (the compound A, distigmine, neostigigmine and bethanechol) were intravenously administrated. Saline in the bladder was extracted after 10 minutes of administration of the compound A, bethanechol and neostigigmine and after 30 minutes of administration of distigmine, and injection was started again to measure data. The drugs were dissolved with distilled water so that administration volume was 0.5 mL/kg. Parameters (bladder volume, the amount of urination, the maximum urine flow rate, the inner pressure of the bladder at the maximum urine flow, bladder compliance) below were measured. The bladder compliance was calculated from intersection point (the threshold of bladder volume, threshold pressure) which was obtained by determining regression line in the respective curves of the inner pressure of the bladder at collection of urine and urinary reflex. The change rate before and after administration of the drug was calculated for the respective parameters and the calibration of significant difference was carried out by a solvent administration group and Dunnett calibration (Table 6 and Table 7).

Assay [2] concerns the target T1, butyrylcholine esterase of human serum origin (Homo sapiens, UniProt P06276).
T1 construct: butyrylcholine esterase of human serum origin; purchased Biogenesis, Poole, UK; host or cells: human serum
The assay is described as follows: biochemical. The note with it: for IC50: mean value of twice tests. In kind it is biochemical.
Protocol: (§1) The AChE inhibitory activity and the BuChE inhibitory activity were determined by a thiocholine method (Ellman method) using acetylcholine esterase of human erythrocyte origin (Sigma, St. Louis, Mo., USA) and butyrylcholine esterase of human serum origin (Biogenesis, Poole, UK). Acetylcholine esterase or butyrylcholine esterase was diluted to a concentration of 0.2 IU/mL with 80 mM tris-HCL buffers (pH=7.4) containing 0.3% bovine serum albumin (BSA) to prepare an enzyme preparation. […] The stock solution was diluted at 3-fold common ratio with 10% DMSO and 80 mM tris-HCl buffers containing 0.3% BSA. On a 96 wells microplate, 20 μL of the drug solution with a given concentration, 30 μL of 80 mM tris-HCl buffers containing 0.3% BSA and 50 μL of the enzyme preparation were distributed, and incubated at room temperature for 1 hour after shaking for 10 seconds. […] For the respective drugs, the test was repeated twice. The % of control of the increase in light absorption was calculated at each concentration with respect to the respective drugs. % of control=increase in light absorption of drug/increase in light absorption of control×100

Assay [3] deals with T2, acetylcholine esterase of human erythrocyte origin (Homo sapiens, UniProt P22303).
T2 construct: acetylcholine esterase of human erythrocyte origin; purchased Sigma, St. Louis, Mo., USA; host or cells: human erythrocytes
The assay is described as follows: biochemical. Type of assay: biochemical. The note with it: for IC50: mean value of twice tests.
Protocol: as §1

The subject of assay [4] is Hartley male guinea pig, urethane anesthesia. The assay is described as follows: Pressure/flow study using guinea pig under continuous phenylephrine (Example 4). In kind it is in vivo. The note with it: i.v., phenylephrine 3 μg/animal/min. On the procedure:
A parameter (the maximum urine flow rate) at urination and a parameter (bladder compliance) at the collection of urine were also measured by a method similar as Example 3 shown below, with respect to the compounds B1 to B6 ([Table 8]).
A Hartley male guinea pig of 4 to 5 weeks old (Japan SLC) was used. After urethane anesthesia, the medial incision of the lower abdomen was carried out, and the bladder was exposed. Two injection needles (20G) with which a polyethylene tube (PE-100) was linked were inserted in the bladder, and one needle was used for injection of saline and another needle was used for measurement of the inner pressure of the bladder. A catheter was inserted in fernoral vein, and phenylephrine was continuously administrated at a flow rate of 3 μg/animal/min. Saline was continuously injected at a speed of 18 mL/h, the injection was stopped after intermittent urination was confirmed 2 times at minimum, and the saline in the bladder was removed by suction. Injection was started again, and the injection was stopped when the raise of the inner pressure of the bladder just before urination was confirmed. The amount of urine eliminated was measured by an electronic weighing machine and the inner pressure of the bladder was measured using a pressure transducer. The analogue data of the weight of urine and the inner pressure of the bladder were inputted in a multi-channel data analyzer (MP-100A-CE, Biopac systems), and analyzed by a proprietary software (Acqknowledge, Biopac systems). As the parameters, the maximum urine flow rate and bladder compliance were measured. Saline in the bladder was extracted after 10 min of the intravenous administration of the compound, and injection was started again to carry out measurement. The compounds were dissolved with DMSO so that administration volume was 0.5 mL/kg. The change rate of respective parameters before and after administration of the compounds was calculated and the calibration of significant difference was carried out by a solvent administration group and t calibration.

For a further assay, the system named is bladder muscle. Also noted: species or system guinea pig. The conditions noted are these: for effect on basic tension: drug alone.
Where [5] appears, read: 0.3 μM, 30 minutes, change of basic tension, 100 mM KCl contraction = 100%.
Where [6] appears, read: 1 μM, 30 minutes, change of basic tension, 100 mM KCl contraction = 100%.
Where [7] appears, read: 3 μM, 30 minutes, change of basic tension, 100 mM KCl contraction = 100%.

Where a name gives a salt, the structure may show the parent alone. Read-outs that look alike come from different tables or passages of the source. Bounds are passed on as bounds.

T2 sequence (P22303 32-617 isoform P22303-2 limits assumed): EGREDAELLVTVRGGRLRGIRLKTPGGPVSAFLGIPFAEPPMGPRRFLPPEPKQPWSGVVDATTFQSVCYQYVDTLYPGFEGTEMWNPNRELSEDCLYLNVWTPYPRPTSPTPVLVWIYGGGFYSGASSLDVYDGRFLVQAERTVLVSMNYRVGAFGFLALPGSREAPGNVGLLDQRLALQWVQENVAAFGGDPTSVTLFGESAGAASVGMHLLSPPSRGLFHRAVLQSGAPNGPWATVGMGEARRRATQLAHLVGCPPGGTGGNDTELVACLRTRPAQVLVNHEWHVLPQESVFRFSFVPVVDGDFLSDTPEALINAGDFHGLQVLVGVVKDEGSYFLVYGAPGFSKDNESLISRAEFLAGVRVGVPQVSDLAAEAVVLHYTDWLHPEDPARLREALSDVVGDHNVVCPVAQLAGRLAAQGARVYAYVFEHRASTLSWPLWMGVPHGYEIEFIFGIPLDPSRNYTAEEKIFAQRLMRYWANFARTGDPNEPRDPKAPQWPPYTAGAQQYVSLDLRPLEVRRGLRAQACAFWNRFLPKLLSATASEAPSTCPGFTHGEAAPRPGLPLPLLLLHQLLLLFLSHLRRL
T1 sequence (P06276 29-602): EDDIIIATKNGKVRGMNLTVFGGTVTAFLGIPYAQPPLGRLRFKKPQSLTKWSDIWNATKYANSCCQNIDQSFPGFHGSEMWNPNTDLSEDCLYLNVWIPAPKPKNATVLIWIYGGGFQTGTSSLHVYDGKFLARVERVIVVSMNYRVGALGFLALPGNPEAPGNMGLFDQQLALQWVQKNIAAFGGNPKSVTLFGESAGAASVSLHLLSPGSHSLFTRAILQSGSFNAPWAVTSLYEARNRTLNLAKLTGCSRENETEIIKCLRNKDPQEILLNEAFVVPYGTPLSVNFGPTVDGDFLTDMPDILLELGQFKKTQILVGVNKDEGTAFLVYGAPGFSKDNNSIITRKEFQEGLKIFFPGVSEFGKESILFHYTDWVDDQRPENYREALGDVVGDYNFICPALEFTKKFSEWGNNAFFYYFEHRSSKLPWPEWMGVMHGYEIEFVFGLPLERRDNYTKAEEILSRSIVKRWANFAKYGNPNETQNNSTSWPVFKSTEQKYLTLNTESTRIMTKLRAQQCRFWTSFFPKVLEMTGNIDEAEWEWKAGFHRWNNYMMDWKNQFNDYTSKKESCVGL

Turning to `CC(C[N+](C)(C)C)OC(N)=O` (stereo not drawn) [Bethanechol], in assay [1] (0.1 mg/kg), the “Amount of urination, proportion for value before administration (%)” value (“Amount of urination, proportion … (%)” below) turned out to be 74.5 ± 13.1%; the “At maximum urine flow rate Inner pressure of bladder, proportion for value before administration (%)” value (from here on “At maximum urine flow rate Inner pressure … (%)”) was 107.0 ± 7.1%; the “Maximum urine flow rate, proportion for value before administration (%)” value (“Maximum urine flow rate, proportion … (%)” below) worked out at 72.8 ± 9.8%; the “Bladder compliance, proportion for value before administration (%)” value (from here on “Bladder compliance, proportion … (%)”) is on record as 75.7 ± 9.8%. Besides, the “Bladder volume, proportion for value before administration (%)” value (from here on “Bladder volume, proportion … (%)”) in assay [1] (0.1 mg/kg) turned out to be 86.0 ± 2.5%. For the same compound, in assay [1] (0.3 mg/kg), the “Amount of urination, proportion … (%)” value stood at 63.5 ± 8.5%; the “At maximum urine flow rate Inner pressure … (%)” value is on record as 99.2 ± 6.4%; the “Maximum urine flow rate, proportion … (%)” value is recorded as 81.00 ± 12.1%; the “Bladder compliance, proportion … (%)” value was 62.6 ± 6.8 %. Also, in assay [1] (0.3 mg/kg), the “Bladder volume, proportion … (%)” value stood at 85.3 ± 6.3%. For the same compound, in assay [1] (1 mg/kg), the “Amount of urination, proportion … (%)” value amounted to 39.1 ± 8.0 %; the “At maximum urine flow rate Inner pressure … (%)” value came out at 104.9 ± 13.0%; the “Maximum urine flow rate, proportion … (%)” value worked out at 66.1 ± 12.3%; the “Bladder compliance, proportion … (%)” value is 45.3 ± 4.9 %. For the same compound, in assay [1] (1 mg/kg), the “Bladder volume, proportion … (%)” value is reported as 66.3 ± 6.0 %. In addition, the “change of the parameters at urination and at collection of urine (text)” value in assay [1] is “lowered the amount of urination, bladder volume and bladder compliance significantly”.

`O=C(CCCCNCCc1ccccc1Cl)c1cc2c3c(c1)CC(=O)N3CCC2` [Compound B1, 8-[5-[[2-(2-chlorophenyl)ethyl]amino]pentanoyl]-5,6-dihydro-4H-pyrrolo[3,2,1-ij]quinolin-2(1H)-one) hydrochloride]: the IC50 in assay [2] (read-out: BuChE IC50) was 5.7 µM; in assay [3] (read-out: AchE IC50) it was 56 nM. The same compound gave a Selectivity b/a in assay [3] (BuChE IC50/AChE IC50 (Table 3)) of 100. In addition, the “Bladder compliance, proportion for value before administration” value in assay [4] (0.1 mg/kg) is 105.1 ± 12.9. Further, the “Maximum urine flow rate, proportion for value before administration” value in assay [4] (0.1 mg/kg) stood at 170.4 ± 27.8.

In the case of `CN(CCCCC(=O)c1ccc2[nH]c(=O)[nH]c2c1)CCc1ccccc1Cl` [Compound B2, 5-[5-[[2-(2-chlorophenyl)ethyl](methyl)amino]pentanoyl]-1,3-dihydro-2H-benzoimidazol-2-one) hydrochloride], the half-inhibitory concentration (IC50) in assay [2] (read-out: BuChE IC50) is greater than 10 µM. The compound further registered a Selectivity b/a in assay [3] (BuChE IC50/AChE IC50 (Table 3)) greater than 45. Moreover, in assay [3] (read-out: AchE IC50), the IC50 is 224 nM. In addition, in assay [4] (0.3 mg/kg), the “Bladder compliance, proportion for value before administration” value stood at 95.0 ± 5.1 and the “Maximum urine flow rate, proportion for value before administration” value is 138.1 ± 13.1.

Consider `CN(CCCCC(=O)c1ccc2c(c1)n(C)c(=O)n2C)CCc1ccccc1Cl` [Compound B3, 5-[5-[[2-(2-chlorophenyl)ethyl](methyl)amino]pentanoyl]-1,3-dimethyl-1,3-dihydro-2H-benzoimidazol-2-one) hydrochloride], for which the IC50 in assay [2] (read-out: BuChE IC50) is greater than 10 µM; in assay [3] (read-out: AchE IC50) it was 28 nM. The same compound showed a Selectivity b/a in assay [3] (BuChE IC50/AChE IC50 (Table 3)) greater than 350. Further, the “Bladder compliance, proportion for value before administration” value in assay [4] (0.1 mg/kg) is reported as 94.7 ± 11.1. Further, the “Maximum urine flow rate, proportion for value before administration” value in assay [4] (0.1 mg/kg) is recorded as 150.8 ± 19.4.

Turning to `CN(CCCCCCN(C)C(=O)Oc1ccc[n+](C)c1)C(=O)Oc1ccc[n+](C)c1` [Distigmine], the “inhibitory activity for human butyrylcholine esterase” value in assay [2] is “inhibitory activity was confirmed”. The half-maximal inhibitory concentration (IC50) was 0.54 µM in assay [2] (read-out: Butyrylcholine esterase IC50) and 380 nM in assay [3] (read-out: Acetylcholine esterase IC50). Further, the “inhibition of the activity of human acetylcholine esterase” value in assay [3] is on record as “inhibited the activity of human acetylcholine esterase”. Also, the “selectivity for acetylcholine esterase inhibitory activity (text, words)” value in assay [3] is “had scarcely selectivity”. For the same compound, in assay [3] (BuChE IC50/AChE IC50 (Table 2)), the Selectivity b/a came to 1.4. For the same compound, the “Tension (%)” value with bladder muscle (0.1 μM, 30 minutes, change of basic tension, 100 mM KCl contraction = 100%) was −1.49 ± 0.30%; with bladder muscle (setting [5]), −0.78 ± 0.50%; with bladder muscle (setting [6]), −0.35 ± 0.73%; in the assay on bladder muscle (setting [7]), 0.64 ± 0.49 %. In addition, the “effect on basic tension” value with bladder muscle was “increased tension slightly but significantly”. The “Amount of urination, proportion … (%)” value is given as 73.9 ± 4.4% in assay [1] (0.03 mg/kg), 89.8 ± 10.3% in assay [1] (0.1 mg/kg) and 65.8 ± 11.9% in assay [1] (0.3 mg/kg). The “At maximum urine flow rate Inner pressure … (%)” value in assay [1] (0.03 mg/kg) is recorded as 112.7 ± 6.6%; in assay [1] (0.1 mg/kg), 115.9 ± 4.2%; in assay [1] (0.3 mg/kg) it was 142.4 ± 6.1 %. Also, the figures for the “Maximum urine flow rate, proportion … (%)” value in assay [1] (0.03 mg/kg), in assay [1] (0.1 mg/kg) and in assay [1] (0.3 mg/kg) were 75.1 ± 6.8%, 76.4 ± 5.8% and 49.2 ± 7.0%, respectively. The figures for the “Bladder compliance, proportion … (%)” value in assay [1] (0.03 mg/kg), in assay [1] (0.1 mg/kg) and in assay [1] (0.3 mg/kg) were 64.6 ± 6.0%, 53.4 ± 2.2 % and 68.3 ± 7.9%, respectively. Further, the “Bladder volume, proportion … (%)” value was 80.6 ± 3.3% in assay [1] (0.03 mg/kg), 83.6 ± 5.9% in assay [1] (0.1 mg/kg) and 80.0 ± 4.5% in assay [1] (0.3 mg/kg). Moreover, the “change of the parameters at urination and at collection of urine (text)” value was “lowered the bladder compliance significantly” in assay [1]; “did not show clear action for the amount of urination and the maximum urine flow rate and increased urination pressure significantly” in assay [1] (listed as distigmine).

Consider `CN(C)C(=O)Oc1ccc[n+](C)c1` [Pyridostigmine], for which the “Tension (%)” value with bladder muscle (setting [5]) is −1.49 ± 0.52%; in the assay with bladder muscle (setting [6]), 0.04 ± 0.38%; in the assay with bladder muscle (setting [7]), 2.87 ± 0.85 %; with bladder muscle (10 μM, 30 minutes, change of basic tension, 100 mM KCl contraction = 100%) it was 7.71 ± 1.30 %; with bladder muscle (30 μM, 30 minutes, change of basic tension, 100 mM KCl contraction = 100%) it was 14.38 ± 1.62 %. In addition, the “effect on basic tension” value in the assay with bladder muscle is “increased basic tension significantly and concentration-dependently”.

In the case of `CC(C)NP(=O)(NC(C)C)OP(=O)(NC(C)C)NC(C)C` [iso-OMPA, tetraisopropylpyrophosphoramide], in assay [2], the “inhibitory activity for human butyrylcholine esterase” value is reported as “showed the inhibitory activity to only butyrylcholine esterase”. Besides, the “Tension (%)” value was −1.31 ± 0.21% with bladder muscle (Table 5: iso-OMPA 10 μM, Compound A 0 μM) and −0.85 ± 0.38% in the assay on bladder muscle (Table 5: iso-OMPA 100 μM, Compound A 0 μM). In the assay with bladder muscle, the “effect on basic tension” value is given as “alone did not influence tension either”.

The values are drawn from patent US20070021391A1, “Preventive/remedy for urinary disturbance” (priority 2003, published 2007).
